Where a SMILES comes first, the peptide text is derived from it.
Experiments:
sPLA2 = assay: Inhibition of sPLA2 activity at fixed concentrations; format: biochemical
[1] = test system: Tg197 transgenic mice (chronic inflammatory polyarthritis); assay: Tg197 transgenic mouse arthritis model, experiment 2 (4 weeks, time course); format: in vivo
Description: In experiment 2, mice were divided into 6 groups (A–F), and were injected i.p with 3 weekly doses (150 μg peptide in 50 μL DMSO per dose) of either the test peptide P-NT.II or the control peptide with the scrambled sequence for 4 consecutive weeks. Tg197 mice in Group B (n=18) were further divided into 4 sub-groups (B1, B2, B3, B4). At the end of 1st week, four Tg197 mice from Group B (sub-group B1) were sacrificed and both hind legs taken for histological processing and scorings. The remaining Tg197 mice from the other sub-groups B were continued with 3 regular doses of injections per week, and four Tg197 mice from each sub-group B2 and B3, were sacrificed at the end of 2nd and 3rd weeks, respectively. At the end of 4th week, all remaining Tg197 mice ([…]) were sacrificed for collection of joint specimens.
(§1) Disease monitoring was done by gross observations based on body weight measurements and arthritis scoring, which were done twice weekly after treatment until all the animals were sacrificed at 5th week in experiment 1, or at 4th week in experiment 2. Arthritis score (AS) was recorded on both ankle joints, and average scores as shown below were taken: • 0=no arthritis (normal appearance and flexion); • 0.5=onset of arthritis (mild joint swelling); • 1.0=mild arthritis (joint distortion); • 1.5=as above+finger deformation, less strength on flexion; • […]=moderate arthritis (severe swelling, joint deformation, no strength on flexion); • 2.5=as above+finger deformation in paws; • 3.0=heavy arthritis (ankylosis detected on flexion and severely impaired movement).
(§2) For histopathological scoring, both hind legs were dissected and fixed in 10% formaldehyde overnight, decalcified in citrate-buffered formic acid for 3 days at 4° C., and processed for light microscopy (LM). • Histopathological score (HS) was evaluated as follows: • 0=no detectable pathology, • 1=hyperplasia of the synovial membrane and presence of polymorphonuclear infiltrates • 2=pannus and fibrous tissue formation and focal subchondrial bone erosion • 3=articular cartilage destruction and bone erosion • 4=articular cartilage destruction and extensive bone erosion.
Transmission electron microscopy (TEM): Ankle joints dissected from the left hind leg of each mouse were split open longitudinally through the midline between the tibia and the talus, prefixed overnight with 2.5% glutaraldehyde in phosphate buffer, pH 7.4 (PB) and rinsed with PB. After fixing with 1% osmium tetroxide in PB for 2 h, they were dehydrated in a graded series of ethanol and processed into Araldite. Semi-thin sections (1.0μ) were cut and stained with methylene blue to observe the orientation and for histopathological scorings under the light microscope. Ultra-thin sections (80–90 nm) were then cut with an ultramicrotome (Riechert-Jung Ultracut E), mounted on copper grids, counterstained with uranyl acetate and lead citrate, and evaluated under electron microscope (CM120 Biotwin, FEI Company).
(§3) Anti-inflammatory activity of the candidate peptide P-NT.II was examined as a new treatment option for modulating rheumatoid arthritis (RA) in a transgenic animal model. To evaluate the potential effectiveness of the peptide as prophylaxis against RA, two separate experiments were performed in 4 week-old transgenic (Tg197) mice and non-transgenic wild-type (wt) mice. These transgenic mice (Tg197) express human tumor necrosis factor (TNFα), a cytokine which has been implicated in the pathogenesis of human RA.

serum sPLA2 = assay: Serum sPLA2 levels in Tg197 mice, E. coli membrane assay; format: in vivo, mouse; settings: 3–4 weeks post-treatment
Description: Serum of transgenic (Tg197) mice and non-transgenic wild type controls were measured for sPLA2 using an Escherichia coli (E. coli) membrane assay as described previously [Eur J Biochem 2002, 269:719–727]. In brief, [^3H] arachidonate-labeled E. coli membrane suspension (5.8 μCi/μmol, Perkin Elmer, USA) was used as substrate, and 25 mM CaCl2-100 mM Tris-HCl (pH 7.5) as assay buffer. The reaction mixture containing substrate (20 μl), and either purified human synovial sPLA2 standard (1–80 ng/ml, Cayman, USA) or serum (10 μl) in a final volume of 250 μl in assay buffer was incubated at 37° C. for 1 h, and the reaction terminated with 750 μl of chilled PBS containing 1% BSA. 500 μl aliquots of the supernatant were then taken to measure the amount of [^3H] arachidonate released from the E. coli membrane using liquid scintillation counting (Beckman LS 6500 Scintillation Counter). The amount of sPLA2 present in the serum was calculated from the standard curve, and is expressed as ng/ml±SEM.
FIG. 12 depicts time course of serum sPLA2 levels. Serum sPLA2 levels were measured with an E. coli membrane assay in blood samples collected from untreated, P-NT.I- and scrambled P-NT.II-treated Tg197 mice at weekly intervals. Values are the mean±SD (n=4/group). […]

[2] = test system: Tg197 transgenic mice (chronic inflammatory polyarthritis); assay: Tg197 transgenic mouse arthritis model, experiment 1 (5 weeks); format: in vivo; settings: for % of total joints, AS (1) / % of total joints, AS (1.5–2): 5 week post-treatment; for % of total at indicated HS scores, HS 2 / % of total at indicated HS scores, HS 3 / % of total at indicated HS scores, HS 4 / Mean HS ± SEM: 5 weeks
Description: The candidate peptide P-NT.II was dissolved in dimethyl sulfoxide (DMSO) at a final concentration of 3 mg/mL. Two sets of experiments were conducted. In Experiment 1 (n=28 Transgenic (Tg197)+7 wild type (wt), peptide-treated animals (Group B) received intra-peritoneal (i.p) injections of 10 mg/kg, thrice weekly for 5 consecutive weeks, while the vehicle controls (Group E) were injected with DMSO (3 mL/kg) only. Non-transgenic (wild type) mice in different groups (C, D) were similarly treated either with the same i.p dose of peptide or DMSO. At the end of the experiment following 5 weeks of peptide injection, each Tg197 mice received a total dose of 1.8 mg of peptide P-NT.II (0.9 μmole).
as §1, §2, §3

For `CC[C@H](C)[C@H](NC(=O)[C@H](Cc1ccc(O)cc1)NC(=O)[C@@H](NC(=O)CNC(=O)[C@H](CC(=O)O)NC(=O)[C@H](Cc1c[nH]c2ccccc12)NC(=O)[C@@H](NC(=O)[C@H](Cc1c[nH]cn1)NC(=O)[C@@H](NC(=O)[C@H](CC(=O)O)NC(=O)[C@@H](NC(=O)[C@H](CCCNC(=N)N)NC(=O)CNC(=O)[C@@H](N)CC(C)C)C(C)C)[C@@H](C)CC)C(C)C)C(C)C)C(=O)N[C@@H](CCCNC(=N)N)C(=O)NCC(=O)N[C@@H](CCCNC(=N)N)C(=O)O` [P-NT.II] (H-LGRVDIHVWDGVYIRGR-OH; N-terminus and C-terminus assumed), the “inhibition of sPLA2 activity” value (sPLA2; 6 μM) was 80%, the “inhibition of sPLA2 activity” value (sPLA2; 10 μM) was 90% and the “% of total at indicated HS scores, HS 2” value ([1]; 1 wk treatment) was 100%. The “% of total at indicated HS scores, HS 3” value ([1]; 1 wk treatment) was 0%, the “% of total at indicated HS scores, HS 4” value ([1]; 1 wk treatment) was 0% and the “Mean HS ± SEM” value ([1]; 1 wk treatment) was 2.12 ± 0.12. For the same molecule, the “HS compared to untreated or scrambled peptide treated group” value ([1]; 1–4 weeks) was “significantly reduced HS”, the “ultrastructural features of the articular chondrocytes (TEM)” value ([1]; 1–4 weeks post-treatment) was “did not significantly differ from those seen in the joints of normal wildtype mice” and the “% of total at indicated HS scores, HS 2” value ([1]; 2 wk treatment) was 100%. For the same molecule, the “% of total at indicated HS scores, HS 3” value ([1]; 2 wk treatment) was 0%, the “% of total at indicated HS scores, HS 4” value ([1]; 2 wk treatment) was 0% and the “Mean HS ± SEM” value ([1]; 2 wk treatment) was 2.37 ± 0.12. The “% of total at indicated HS scores, HS 2” value ([1]; 3 wk treatment) was 75%, the “% of total at indicated HS scores, HS 3” value ([1]; 3 wk treatment) was 25% and the “% of total at indicated HS scores, HS 4” value ([1]; 3 wk treatment) was 0%. The “Mean HS ± SEM” value ([1]; 3 wk treatment) was 2.50 ± 0.20, the “HS of synovitis, cartilage degradation and bone erosion” value ([1]; 4 weeks post-treatment, n=4/group) was “protective effect” and the “% of total at indicated HS scores, HS 2” value ([1]; 4 wk treatment) was 75%. For the same molecule, the “% of total at indicated HS scores, HS 3” value ([1]; 4 wk treatment) was 25%, the “% of total at indicated HS scores, HS 4” value ([1]; 4 wk treatment) was 0% and the “Mean HS ± SEM” value ([1]; 4 wk treatment) was 2.62 ± 0.31. For the same molecule, the “number of inflammatory cells in the synovium” value ([1]; as early as 1 week after initiation of treatment) was “reduced”, the “joints either normal or only mildly affected by arthritis” value ([1]; first two weeks after peptide treatment) was 100% and the “chondrocyte necrobiosis as well as bone erosions” value ([1]; histopathologic analysis of joints) was “significantly reduced”. For the same molecule, the “joints either normal or only mildly affected by arthritis” value ([1]; last two weeks after peptide treatment) was 75%, the “circulating sPLA2 compared with untreated mice” value (serum sPLA2) was “significantly suppressed” and the “% of total joints, AS (1)” value ([2]; 4 M + 3 F, 14 joints) was 50%. The “% of total joints, AS (1.5–2)” value ([2]; 4 M + 3 F, 14 joints) was 50%, the “% of total at indicated HS scores, HS 2” value ([2]; 4 M + 3 F, 14 joints) was 35.7% and the “% of total at indicated HS scores, HS 3” value ([2]; 4 M + 3 F, 14 joints) was 64.3%. The “% of total at indicated HS scores, HS 4” value ([2]; 4 M + 3 F, 14 joints) was 0%, the “Mean HS ± SEM” value ([2]; 4 M + 3 F, 14 joints) was 2.71 ± 0.15 and the “% of total at indicated HS scores, HS 2” value ([2]; 4 M, 8 joints, 10 mg/kg i.p. thrice weekly) was 62.5%. The “% of total joints, AS (1)” value ([2]; 4 M, 8 joints) was 87%, the “% of total joints, AS (1.5–2)” value ([2]; 4 M, 8 joints) was 13% and the “% of total at indicated HS scores, HS 3” value ([2]; 4 M, 8 joints) was 37.5%. For the same molecule, the “% of total at indicated HS scores, HS 4” value ([2]; 4 M, 8 joints) was 0%, the “Mean HS ± SEM” value ([2]; 4 M, 8 joints) was 2.37 ± 0.18 and the “effect of peptide on joint damage” value ([2]; females, P>0.05) was “less evident”. For the same molecule, the “histological scores compared with untreated or DMSO-treated groups” value ([2]; male Tg197 mice, P<0.001) was “significantly lower histological scores” and the “histological scores compared with untreated or DMSO-treated mice” value ([2]; males + females, P<0.05) was “significantly lower histological scores”.
